This note sets out measurements from patent US6831081B2, “4-Oxo-4,7-dihydrothieno[2,3-b]pyridine-5-carboxamides as antiviral agents” (Pharmacia & Upjohn, priority 2002, dated 2004).

The target in one series is T1, HCMV polymerase (Human cytomegalovirus, UniProt P08546).
T1 construct: made in house; host or cells: SF-9 insect cells (recombinant baculovirus)
In words: HCMV polymerase scintillation proximity assay. The format is biochemical. The method, then:
(§1) The HCMV polymerase assay is performed using a scintillation proximity assay (SPA) as described in several references, such as N.D. Cook, et al., Pharmaceutical Manufacturing International, pages 49-53 (1992), K Takeuchi, Laboratory Practice, September issue (1992); U.S. Pat. No. 4,568,649 (1986); which are incorporated by reference herein. Reactions are performed in 96-well plates. The assay is conducted in 100 μl volume with 5.4 mM HEPES (pH 7.5), 11.7 mM KCl, 4.5 mM MgCl2, 0.36 mg/ml BSA, and 90 nM ^3H-dTTP. Assays are run with and without CHAPS, (3-[(3-Cholamidopropyl)-dimethylammonio]-1-propane-sulfonate) at a final concentration of 2 mM. HCMV polymerase is diluted in enzyme dilution buffer containing 50% glycerol, 250 mM NaCl, 10 mM HEPES (pH 7.5), […] BSA, and 0.01% sodium azide. The HCMV polymerase, which is expressed in recombinant baculovirus-infected SF-9 cells and purified according to literature procedures, is added at 10% (or 10 μl) of the final reaction volume, i.e., 100 μl. Compounds are diluted in 50% DMSO and 10 μl are added to each well. Control wells contain an equivalent concentration of DMSO. Unless noted otherwise, reactions are initiated via the addition of 6 nM biotinylated poly(dA)-oligo(dT) template/primer to reaction mixtures containing the enzyme, substrate, and compounds of interest. Plates are incubated in a 25° C. or 37° C. H2O bath and terminated via the addition of 40 μl/reaction of 0.5 M EDTA (pH 8) per well. Reactions are terminated within the time-frame during which substrate incorporation is linear and varied depending upon the enzyme and conditions used, Le., 30 min. for HCMV polymerase. Ten (10) μl of streptavidin-SPA beads (20 mg/ml in PBS/10% glycerol) are added following termination of the reaction. Plates are incubated 10 min. at 37° C., then equilibrated to room temperature, and counted on a Packard Topcount. Linear regressions are performed and IC50's are calculated using computer software.
(§2) A modified version of the above HCMV polymerase assay is performed as described above, but with the following changes: Compounds are diluted in 100% DMSO until final dilution into assay buffer. In the previous assay, compounds are diluted in 50% DMSO. 4.5 mM Dithiothreitol (DTT) is added to the polymerase buffer.
(§3) All results are listed as Polymerase IC50(μM) values. In Table 1, the term “n.d.” refers to activity data not determined.
On the technique in general: Scintillation proximity formats need no separation of bound from free tracer.

Another series deals with HSV polymerase (Human herpesvirus 1, UniProt P04293). Put plainly: HSV polymerase assay (SPA). The format is biochemical. The method, then:
[Worded in the source for another target; used here, by the source, with some conditions changed.] as §1, §2, §3

The next series has as its target VZV polymerase (Varicella-zoster virus, UniProt P09252). In words: VZV polymerase assay (SPA). The format is biochemical. The method, then:
[Worded in the source for another target; used here, by the source, with some conditions changed.] as §1, with “Control wells contain an equivalent concentration of DMSO. Unless noted otherwise, reactions are initiated via the addition of 6 nM biotinylated poly(dA)-oligo(dT) template/primer to reaction mixtures containing the enzyme, substrate, and compounds of interest. Plates are incubated in a 25° C. or 37° C. H2O bath and terminated via the addition of 40 μl/reaction of 0.5 M EDTA (pH 8) per well. Reactions are terminated within the time-frame during which substrate incorporation is linear and varied depending upon the enzyme and conditions used, Le., 30 min. for HCMV polymerase. Ten (10) μl of streptavidin-SPA beads (20 mg/ml in PBS/10% glycerol) are added following termination of the reaction.” left out, “software. […]” for “software.”
as §3

SMILES strings stand for the structures.

T1 sequence (P08546 whole entry): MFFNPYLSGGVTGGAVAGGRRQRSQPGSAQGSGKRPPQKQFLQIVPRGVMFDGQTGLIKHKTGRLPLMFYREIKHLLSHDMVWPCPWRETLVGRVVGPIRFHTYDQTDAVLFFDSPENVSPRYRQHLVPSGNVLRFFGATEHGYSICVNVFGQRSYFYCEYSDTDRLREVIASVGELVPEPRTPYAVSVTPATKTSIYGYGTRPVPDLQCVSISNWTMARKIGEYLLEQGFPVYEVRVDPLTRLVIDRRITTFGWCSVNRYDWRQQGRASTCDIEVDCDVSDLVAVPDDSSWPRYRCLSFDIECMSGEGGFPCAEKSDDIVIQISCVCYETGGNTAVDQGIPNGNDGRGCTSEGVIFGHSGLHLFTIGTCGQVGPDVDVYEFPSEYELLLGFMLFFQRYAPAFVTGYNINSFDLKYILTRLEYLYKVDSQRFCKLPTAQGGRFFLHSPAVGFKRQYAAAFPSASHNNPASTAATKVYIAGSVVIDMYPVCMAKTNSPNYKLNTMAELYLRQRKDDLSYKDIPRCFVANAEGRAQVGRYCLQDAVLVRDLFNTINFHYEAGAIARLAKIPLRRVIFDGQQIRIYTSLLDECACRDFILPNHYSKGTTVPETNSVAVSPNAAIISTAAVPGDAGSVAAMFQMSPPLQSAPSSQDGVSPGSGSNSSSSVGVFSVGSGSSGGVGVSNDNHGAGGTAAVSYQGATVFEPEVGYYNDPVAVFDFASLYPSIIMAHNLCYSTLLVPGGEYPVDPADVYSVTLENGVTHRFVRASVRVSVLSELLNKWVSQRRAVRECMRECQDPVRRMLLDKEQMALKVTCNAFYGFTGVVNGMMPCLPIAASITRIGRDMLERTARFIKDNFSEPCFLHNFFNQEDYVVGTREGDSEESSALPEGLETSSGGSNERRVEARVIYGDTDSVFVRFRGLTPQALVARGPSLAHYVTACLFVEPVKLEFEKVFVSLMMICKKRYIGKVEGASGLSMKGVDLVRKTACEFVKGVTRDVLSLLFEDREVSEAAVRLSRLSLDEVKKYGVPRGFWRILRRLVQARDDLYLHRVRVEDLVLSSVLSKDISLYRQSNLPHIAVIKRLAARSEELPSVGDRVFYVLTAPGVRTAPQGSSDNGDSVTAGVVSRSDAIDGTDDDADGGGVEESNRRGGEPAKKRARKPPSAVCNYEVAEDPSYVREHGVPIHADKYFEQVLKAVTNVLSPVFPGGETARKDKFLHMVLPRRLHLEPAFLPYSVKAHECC
Sequence of HSV polymerase (P04293 whole entry): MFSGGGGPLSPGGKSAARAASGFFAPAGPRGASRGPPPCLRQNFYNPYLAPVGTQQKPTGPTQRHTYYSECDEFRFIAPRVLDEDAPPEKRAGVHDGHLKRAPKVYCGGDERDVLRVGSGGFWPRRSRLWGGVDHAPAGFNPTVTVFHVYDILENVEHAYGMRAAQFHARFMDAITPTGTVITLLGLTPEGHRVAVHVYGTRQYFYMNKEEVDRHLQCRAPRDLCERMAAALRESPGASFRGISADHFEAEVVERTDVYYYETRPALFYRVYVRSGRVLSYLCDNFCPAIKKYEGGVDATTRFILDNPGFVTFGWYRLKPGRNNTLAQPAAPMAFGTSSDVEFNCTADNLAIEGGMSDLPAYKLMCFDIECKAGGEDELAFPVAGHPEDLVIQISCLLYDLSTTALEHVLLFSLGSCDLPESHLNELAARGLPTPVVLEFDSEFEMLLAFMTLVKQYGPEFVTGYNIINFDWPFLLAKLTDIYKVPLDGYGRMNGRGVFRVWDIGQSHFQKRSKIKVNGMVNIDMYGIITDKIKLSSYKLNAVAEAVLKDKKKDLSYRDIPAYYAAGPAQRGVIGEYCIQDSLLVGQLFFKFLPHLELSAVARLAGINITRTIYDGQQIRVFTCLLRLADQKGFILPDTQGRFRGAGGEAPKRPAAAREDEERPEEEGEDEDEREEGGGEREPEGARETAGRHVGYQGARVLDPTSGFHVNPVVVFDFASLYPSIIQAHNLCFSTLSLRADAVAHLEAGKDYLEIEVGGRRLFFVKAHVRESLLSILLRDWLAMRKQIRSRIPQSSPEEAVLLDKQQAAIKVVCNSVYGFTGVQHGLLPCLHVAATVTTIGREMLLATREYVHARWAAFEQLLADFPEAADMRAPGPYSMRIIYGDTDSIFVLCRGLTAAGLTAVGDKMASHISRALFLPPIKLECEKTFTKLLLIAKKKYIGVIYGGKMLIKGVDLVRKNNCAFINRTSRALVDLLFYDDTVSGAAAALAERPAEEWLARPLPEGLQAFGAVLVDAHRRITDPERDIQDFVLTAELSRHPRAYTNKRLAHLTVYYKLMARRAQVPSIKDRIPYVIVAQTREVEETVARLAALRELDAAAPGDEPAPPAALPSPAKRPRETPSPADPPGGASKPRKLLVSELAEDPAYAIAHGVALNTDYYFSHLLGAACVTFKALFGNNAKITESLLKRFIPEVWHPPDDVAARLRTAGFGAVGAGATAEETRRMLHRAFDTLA
Sequence of VZV polymerase (P09252 whole entry): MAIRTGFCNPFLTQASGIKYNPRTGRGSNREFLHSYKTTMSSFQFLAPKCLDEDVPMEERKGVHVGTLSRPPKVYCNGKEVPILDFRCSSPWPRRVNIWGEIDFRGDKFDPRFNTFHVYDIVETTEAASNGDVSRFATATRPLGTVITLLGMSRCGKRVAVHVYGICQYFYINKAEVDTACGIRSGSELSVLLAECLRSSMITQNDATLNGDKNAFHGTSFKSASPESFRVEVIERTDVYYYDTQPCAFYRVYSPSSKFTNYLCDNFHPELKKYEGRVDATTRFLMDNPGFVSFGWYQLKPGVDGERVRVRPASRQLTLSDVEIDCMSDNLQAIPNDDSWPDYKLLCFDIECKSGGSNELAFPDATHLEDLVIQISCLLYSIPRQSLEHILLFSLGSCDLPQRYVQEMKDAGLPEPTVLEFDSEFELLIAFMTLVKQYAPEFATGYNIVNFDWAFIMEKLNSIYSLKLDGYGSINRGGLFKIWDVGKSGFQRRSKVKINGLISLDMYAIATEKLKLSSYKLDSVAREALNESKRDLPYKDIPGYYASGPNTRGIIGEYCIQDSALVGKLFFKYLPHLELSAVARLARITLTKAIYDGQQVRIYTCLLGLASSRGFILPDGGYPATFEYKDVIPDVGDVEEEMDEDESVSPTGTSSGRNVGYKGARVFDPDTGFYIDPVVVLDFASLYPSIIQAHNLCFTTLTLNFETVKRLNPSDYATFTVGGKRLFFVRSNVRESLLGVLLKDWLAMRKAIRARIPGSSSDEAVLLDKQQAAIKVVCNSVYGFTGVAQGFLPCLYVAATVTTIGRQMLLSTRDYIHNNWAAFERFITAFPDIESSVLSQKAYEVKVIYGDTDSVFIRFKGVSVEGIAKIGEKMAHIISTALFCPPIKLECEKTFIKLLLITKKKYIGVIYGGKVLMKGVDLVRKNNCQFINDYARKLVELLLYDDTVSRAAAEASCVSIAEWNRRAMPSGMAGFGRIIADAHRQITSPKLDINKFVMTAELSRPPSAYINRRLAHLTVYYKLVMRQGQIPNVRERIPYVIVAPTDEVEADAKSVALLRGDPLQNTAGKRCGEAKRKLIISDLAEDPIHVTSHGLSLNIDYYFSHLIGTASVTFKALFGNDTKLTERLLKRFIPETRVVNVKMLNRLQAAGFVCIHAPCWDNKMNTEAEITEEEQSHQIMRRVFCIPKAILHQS

As for `Cn1cc(C(=O)NCc2ccc(Cl)cc2)c(=O)c2cc(CN3CCOC[C@@H]3[C@H](O)c3ccccc3)sc21` [Example 14, N-(4-Chlorobenzyl)-2-(((3R)-3-((R)-hydroxy(phenyl)methyl)morpholin-4-yl)-methyl)-7-methyl-4-oxo-4,7-dihydrothieno[2,3-b]pyridine-5-carboxamide], the melting point lay in the range of 171 to 172 °C. For the same molecule, the half-inhibitory concentration (IC50) at HCMV polymerase is 1270 nM. At HSV polymerase, this molecule registered an IC50 of 2970 nM.

Take `Cn1cc(C(=O)NCc2ccc(Cl)cc2)c(=O)c2cc(CN3CCOC[C@@H]3Cc3ccccc3)sc21` [Example 1, 2-(((3S)-3-Benzylmorpholin-4-yl)methyl)-N-(4-chlorobenzyl)-7-methyl-4-oxo-4,7-dihydrothieno[2,3-b]pyridine-5-carboxamide]: the half-inhibitory concentration (IC50) against HCMV polymerase stood at 450 nM; against HSV polymerase it was 1000 nM; against VZV polymerase, 420 nM.

In turn, `Cn1cc(C(=O)NCc2ccc(Cl)cc2)c(=O)c2cc(CN3CCOC[C@@H]3[C@@H](O)c3ccccc3)sc21` [Example 15, N-(4-Chlorobenzyl)-2-(((3R)-3-((S)hydroxy(phenyl)methyl)morpholin-4-yl)-methyl)-7-methyl-4-oxo-4,7-dihydrothieno[2,3-b]pyridine-5-carboxamide] gave a melting point of 129 to 134 °C. Also, the concentration for half-maximal inhibition (IC50) against HCMV polymerase amounted to 24 nM. This molecule had an IC50 on HSV polymerase of 22 nM.

Molecule `Cn1cc(C(=O)NCc2ccc(Cl)cc2)c(=O)c2cc(CN3CCC[C@@H]3[C@@H](O)c3ccccc3)sc21` (relative stereo) [Example 2, N-(4-Chlorobenzyl)-2-(((2R*2)-(S*)-hydroxy(phenyl)methyl)pyrrolidin-1-yl)methyl)-7-methyl-4-oxo-4,7-dihydrothieno[2,3-b]pyridine-5-carboxamide] had a melting point of 158 to 162 °C. Besides, the concentration for half-maximal inhibition (IC50) against HCMV polymerase came out at 120 nM. Besides, the IC50 at HSV polymerase amounted to 720 nM. Also, the IC50 against VZV polymerase was 210 nM.

By IC50 is commonly meant the concentration that gives 50% inhibition. Broadly, the melting point is the temperature, or range, at which the solid turns liquid.
